Experimental data taken from US8796245B2 (TetraPhase Pharmaceuticals, Inc., priority 2008, dated 2014).
In brackets after ≈: the same amount, converted by molar mass.

How the values were obtained:
Type in all cases: cell-based
[1] = test system: S. aureus ATCC 29213 (SA101, MSSA); experiment: Minimum inhibitory concentration assay, SA101; conditions: Staphylococcus aureus; S. aureus ATCC 29213, MSSA control; read-out: MICs SA101
Method: (§1) Frozen bacterial strains were thawed and subcultured onto Mueller Hinton Broth (MHB) or other appropriate media (Streptococcus requires blood and Haemophilus requires hemin and NAD). Following incubation overnight, the strains were subcultured onto Mueller Hinton Agar and again incubated overnight. […] Isolated colonies were selected to prepare a starting inoculum equivalent to a 0.5 McFarland standard. The starting inoculum was diluted 1:125 using MHB for further use. Test compounds were prepared by dilution in sterile water to a final concentration of 5.128 mg/mL. Antibiotics (stored frozen, thawed and used within 3 hours of thawing) and compounds were further diluted to the desired working concentrations.
(§2) The assays were run as follows. Fifty μL of MHB was added to wells 2-12 of a 96-well plate. One hundred […] of appropriately diluted antibiotics was added to well 1. Fifty μL of antibiotics was removed from well 1 and added to well 2 and the contents of well 2 mixed by pipetting up and down five times. Fifty μL of the mixture in well 2 was removed and added to well 3 and mixed as above. Serial dilutions were continued in the same manner through well 12. Fifty μL was removed from well 12 so that all contained 50 μL. Fifty μL of the working inoculum was then added to all test wells. A growth control well was prepared by adding 50 μL of working inoculum and 50 μL of MHB to an empty well. The plates were then incubated at 37° C. overnight, removed from the incubator and each well was read on a plate reading mirror. The lowest concentration (MIC) of test compound that inhibited the growth of the bacteria was recorded.

[2] = test system: E. faecalis ATCC 29212 (EF103); experiment: Minimum inhibitory concentration assay, EF103; conditions: Enterococcus faecalis, ATCC29212, read-out: MICs EF103
Method: as §1, §2

[3] = test system: E. cloacae ATCC 13047 (EC108); experiment: Minimum inhibitory concentration assay, EC108; conditions: Enterobacter cloacae, ATCC13047; E. cloacae ATCC 13047, wt; read-out: MICs EC108
Method: as §1, §2

[4] = test system: S. aureus ATCC 13709 (SA100, MSSA, Smith strain); experiment: Minimum inhibitory concentration assay, SA100; conditions: Staphylococcus aureus; S. aureus ATCC 13709, MSSA Smith strain; read-out: MICs SA100
Method: as §1, §2

[5] = test system: S. aureus SA161 (tet resistant: tet(M) ribosomal protection); experiment: Minimum inhibitory concentration assay, SA161; conditions: Staphylococcus aureus, read-out: MICs SA161
Method: as §1, §2

[6] = test system: S. pneumoniae ATCC 49619 (SP106); experiment: Minimum inhibitory concentration assay, SP106; conditions: Streptococcus pneumoniae, ATCC49619; S. pneumoniae ATCC 49619, wt; read-out: MICs SP106
Method: as §1, §2

[7] = test system: K. pneumoniae ATCC 13883 (KP109); experiment: Minimum inhibitory concentration assay, KP109; conditions: Klebsiella pneumoniae, ATCC13883; K. pneumoniae ATCC 13883, wt; read-out: MICs KP109
Method: as §1, §2

[8] = test system: P. aeruginosa ATCC 27853 (PA111); experiment: Minimum inhibitory concentration assay, PA111; conditions: Pseudomonas aeruginosa, ATCC27853; P. aeruginosa ATCC 27853, wt; read-out: MICs PA111
Method: as §1, §2

[9] = test system: E. faecalis EF159 (tet resistant: tetM); experiment: Minimum inhibitory concentration assay, EF159; conditions: Enterococcus faecalis, read-out: MICs EF159
Method: as §1, §2

[10] = test system: E. coli ATCC 25922 (EC107); experiment: Minimum inhibitory concentration assay, EC107; conditions: Escherichia coli, ATCC25922; E. coli ATCC 25922, wt; read-out: MICs EC107
Method: as §1, §2

[11] = test system: S. aureus SA158 (tet resistant: tetK efflux); experiment: microbe, parasite or virus in culture; conditions: Staphylococcus aureus, read-out: MICs SA158
Method: as §1, §2

[12] = test system: E. coli EC155 (tet resistant: tetA efflux); experiment: microbe, parasite or virus in culture; conditions: Escherichia coli; E. coli tet resistant: tetA (efflux); read-out: MICs EC155
Method: as §1, §2

[13] = test system: K. pneumoniae KP153 (tet resistant: tetA efflux); experiment: microbe, parasite or virus in culture; conditions: Klebsiella pneumoniae, read-out: MICs KP153
Method: as §1, §2

[14] = test system: S. pneumoniae SP160 (tet resistant: tet M); experiment: Minimum inhibitory concentration assay, SP160; conditions: Streptococcus pneumoniae, read-out: MICs SP160
Method: as §1, §2

[15] = test system: A. baumanii ATCC 19606 (AB110); experiment: Minimum inhibitory concentration assay, AB110; conditions: Acinetobacter baumannii, ATCC19606; A. baumanii ATCC 19606, wt; read-out: MICs AB110
Method: as §1, §2

SMILES | MIC [1] | MIC [2] | MIC [3] | MIC [4] | MIC [5] | MIC [6] | MIC [7] | MIC [8] | MIC [9] | MIC [10] | MIC [11] | MIC [12] | MIC [13] | MIC [14] | MIC [15]
CN(C)[C@@H]1C(O)=C(C(N)=O)C(=O)[C@@]2(O)C(O)=C3C(=O)c4c(O)c(NC(=O)CN5CCCC5)cc(F)c4C[C@H]3C[C@@H]12 [Compound 34] | ≤ 0.0156 µg/mL | ≤ 0.0156 µg/mL | 1 µg/mL (≈ 1.79 µM) | 0.0625 µg/mL (≈ 0.112 µM) | 0.0625 µg/mL (≈ 0.112 µM) | ≤ 0.0156 µg/mL | 0.5 µg/mL (≈ 0.895 µM) | 16 µg/mL (≈ 28.6 µM) | ≤ 0.0156 µg/mL | 0.25 µg/mL (≈ 0.448 µM) | 0.125 µg/mL (≈ 0.224 µM) | 2 µg/mL (≈ 3.58 µM) | 2 µg/mL (≈ 3.58 µM) | ≤ 0.0156 µg/mL | 0.125 µg/mL (≈ 0.224 µM)
CN(C)[C@@H]1CCN(CC(=O)Nc2cc(F)c3c(c2O)C(=O)C2=C(O)[C@]4(O)C(=O)C(C(N)=O)=C(O)[C@@H](N(C)C)[C@@H]4C[C@@H]2C3)C1 [Compound 37] | 8 µg/mL (≈ 13.3 µM) | 16 µg/mL (≈ 26.6 µM) | > 32 µg/mL | 8 µg/mL (≈ 13.3 µM) | > 32 µg/mL | 2 µg/mL (≈ 3.32 µM) | > 32 µg/mL | > 32 µg/mL | 16 µg/mL (≈ 26.6 µM) | > 32 µg/mL | > 32 µg/mL | > 32 µg/mL | > 32 µg/mL | 4 µg/mL (≈ 6.65 µM) | > 32 µg/mL
CN(C)[C@@H]1C(O)=C(C(N)=O)C(=O)[C@@]2(O)C(O)=C3C(=O)c4c(O)c(NC(=O)CNC5CCCC5)cc(F)c4C[C@H]3C[C@@H]12 [Compound 18] | 0.0625 µg/mL (≈ 0.109 µM) | ≤ 0.0156 µg/mL | 0.5 µg/mL (≈ 0.873 µM) | ≤ 0.0156 µg/mL | 0.0625 µg/mL (≈ 0.109 µM) | ≤ 0.0156 µg/mL | 0.5 µg/mL (≈ 0.873 µM) | 16 µg/mL (≈ 27.9 µM) | 0.0313 µg/mL (≈ 0.0547 µM) | 0.125 µg/mL (≈ 0.218 µM) | 0.125 µg/mL (≈ 0.218 µM) | 4 µg/mL (≈ 6.99 µM) | 4 µg/mL (≈ 6.99 µM) | ≤ 0.0156 µg/mL | 0.25 µg/mL (≈ 0.437 µM)
CC(C)CNCC(=O)Nc1cc(F)c2c(c1O)C(=O)C1=C(O)[C@]3(O)C(=O)C(C(N)=O)=C(O)[C@@H](N(C)C)[C@@H]3C[C@@H]1C2 [Compound 19] | 0.125 µg/mL (≈ 0.223 µM) | ≤ 0.0156 µg/mL | 2 µg/mL (≈ 3.57 µM) | 0.25 µg/mL (≈ 0.446 µM) | 0.25 µg/mL (≈ 0.446 µM) | ≤ 0.0156 µg/mL | 1 µg/mL (≈ 1.78 µM) | 16 µg/mL (≈ 28.5 µM) | 0.125 µg/mL (≈ 0.223 µM) | 0.25 µg/mL (≈ 0.446 µM) | 0.25 µg/mL (≈ 0.446 µM) | 4 µg/mL (≈ 7.14 µM) | 4 µg/mL (≈ 7.14 µM) | ≤ 0.0156 µg/mL | 0.25 µg/mL (≈ 0.446 µM)
CN(C)[C@@H]1C(O)=C(C(N)=O)C(=O)[C@@]2(O)C(O)=C3C(=O)c4c(O)c(NC(=O)CN5CCOCC5)cc(F)c4C[C@H]3C[C@@H]12 [Compound 44] | 4 µg/mL (≈ 6.96 µM) | 8 µg/mL (≈ 13.9 µM) | > 32 µg/mL | 4 µg/mL (≈ 6.96 µM) | 8 µg/mL (≈ 13.9 µM) | 0.5 µg/mL (≈ 0.87 µM) | > 32 µg/mL | > 32 µg/mL | 8 µg/mL (≈ 13.9 µM) | 32 µg/mL (≈ 55.7 µM) | 8 µg/mL (≈ 13.9 µM) | > 32 µg/mL | > 32 µg/mL | 1 µg/mL (≈ 1.74 µM) | 8 µg/mL (≈ 13.9 µM)
CCN(C)CC(=O)Nc1cc(F)c2c(c1O)C(=O)C1=C(O)[C@]3(O)C(=O)C(C(N)=O)=C(O)[C@@H](N(C)C)[C@@H]3C[C@@H]1C2 [Compound 24] | 0.25 µg/mL (≈ 0.457 µM) | ≤ 0.0156 µg/mL | 2 µg/mL (≈ 3.66 µM) | 0.25 µg/mL (≈ 0.457 µM) | 0.125 µg/mL (≈ 0.229 µM) | ≤ 0.0156 µg/mL | 1 µg/mL (≈ 1.83 µM) | 16 µg/mL (≈ 29.3 µM) | ≤ 0.0156 µg/mL | 0.5 µg/mL (≈ 0.915 µM) | 0.125 µg/mL (≈ 0.229 µM) | 8 µg/mL (≈ 14.6 µM) | 8 µg/mL (≈ 14.6 µM) | ≤ 0.0156 µg/mL | 0.0313 µg/mL (≈ 0.0573 µM)
CN(C)[C@@H]1C(O)=C(C(N)=O)C(=O)[C@@]2(O)C(O)=C3C(=O)c4c(O)c(NC(=O)CN5CCC5)cc(F)c4C[C@H]3C[C@@H]12 [Compound 32] | 0.125 µg/mL (≈ 0.23 µM) | 0.0625 µg/mL (≈ 0.115 µM) | 1 µg/mL (≈ 1.84 µM) | 0.5 µg/mL (≈ 0.918 µM) | 0.25 µg/mL (≈ 0.459 µM) | ≤ 0.0156 µg/mL | 1 µg/mL (≈ 1.84 µM) | 8 µg/mL (≈ 14.7 µM) | 0.125 µg/mL (≈ 0.23 µM) | 0.25 µg/mL (≈ 0.459 µM) | 0.5 µg/mL (≈ 0.918 µM) | 8 µg/mL (≈ 14.7 µM) | 4 µg/mL (≈ 7.35 µM) | ≤ 0.0156 µg/mL | 2 µg/mL (≈ 3.67 µM)
